The text below walks through data of publication PMC10610214 (Pharmaceuticals, 2023).

One series deals with H2O2-induced PC12 cells. The experiment in a line: Neuroprotection against H2O2-induced PC12 cell injury (MTT). Format: cell-based. As to conditions: H2O2 250 μM, mean ± SEM.
The target of the next series is Aβ1-42 (Homo sapiens, UniProt P05067). Description: Self-induced Aβ1-42 aggregation, thioflavin T fluorescence. Set-up: final concentrations of 20 μM of Aβ1-42 and 100 μM of test compound; purchased Beyotime Institute of Biotechnology. Format: biochemical. The conditions noted are these: 100 μM inhibitor; ThT; 48 h; read-out: Inhibition of Self-Induced Aβ Aggregation (%). On the procedure:
The inhibitory effect of compounds on Aβ42 was determined by Thioflavin T (ThT) fluorescence assay. In short, the dilution of Aβ42 solution (Beyotime Biotechnology, Hang Zhou, China) and test compounds was carried out with phosphate buffer (50 mM, pH 7.4) to obtain final concentrations of 20 μM of Aβ1-42 and 100 μM of test compound, such as curcumin (20 μM). The mixture was incubated in 96-well plates at room temperature for 48 h in the dark. When the incubation was complete, the samples were diluted to 200 µL (final volume) with glycine–NaOH buffer (50 mM, pH 8.0) containing 5 μM ThT.

In a further series the target is T1, BuChE (Equus caballus, UniProt P81908).
T1 construct: BuChE (from equine serum); purchased Sigma Chemical Company (St. Louis, MO, USA); host or cells: equine serum
T1 sequence (P81908 whole entry): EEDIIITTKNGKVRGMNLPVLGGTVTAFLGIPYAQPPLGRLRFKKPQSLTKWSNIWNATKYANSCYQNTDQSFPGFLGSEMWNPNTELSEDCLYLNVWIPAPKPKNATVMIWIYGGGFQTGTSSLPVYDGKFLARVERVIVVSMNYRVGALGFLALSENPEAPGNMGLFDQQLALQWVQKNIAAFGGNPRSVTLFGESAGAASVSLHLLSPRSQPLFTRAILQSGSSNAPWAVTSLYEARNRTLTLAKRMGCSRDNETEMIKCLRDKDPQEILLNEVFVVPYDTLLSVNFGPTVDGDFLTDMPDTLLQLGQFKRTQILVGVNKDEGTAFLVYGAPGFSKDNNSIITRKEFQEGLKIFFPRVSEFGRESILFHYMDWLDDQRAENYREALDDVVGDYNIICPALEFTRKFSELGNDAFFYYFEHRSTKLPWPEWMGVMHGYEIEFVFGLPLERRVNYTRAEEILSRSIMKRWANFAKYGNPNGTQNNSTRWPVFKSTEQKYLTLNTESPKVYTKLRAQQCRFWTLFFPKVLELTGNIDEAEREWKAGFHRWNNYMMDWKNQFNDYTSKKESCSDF
The experiment in a line: Reversibility of BuChE inhibition, dilution method. Format: biochemical. The conditions noted are these: for BuChE activity after dilution (reversibility): control 100. On the procedure: The activities of the diluted residual enzymes were measured by Ellman’s modified method.
Reversibility studies were performed using a modified Ellman’s dilution method to measure the activity of the diluted residual enzyme. The AChE/BuChE (0.5 U/mL), ATCI/BTCI (0.01 M) and DTNB (0.01 M) were diluted with phosphate buffer pH = 7.4. […] At the end of incubation, 20 μL of DTNB solution was added to them. […] All the measured results are expressed as the mean ± SEM of the three independent experiments.

Another series deals with BV2 cells. Description: Cytotoxicity in BV2 cells (MTT). Format: cell-based. Here is the method:
The cytotoxicity and neuroprotective effects of the compounds on PC12 cells were evaluated by MTT assay. PC12 cells were seeded into a 96-well plate at a density of 5.0 × 10^3 cells per well. After the cells were incubated overnight, the old medium was discarded. The cells were incubated for another 24 h with fresh medium containing compounds at a concentration of 30 or 50 μM. A total of 20 μL of MTT solution (5 mg/mL, Sigma-Aldrich, Shanghai, China) was then added per well, and the cells were incubated for an additional 4 h. Afterwards, the supernatant was removed and 150 μL of DMSO was added to solubilize formazan crystals. The 96-well plate was placed on the shaker for 10–15 min, and then the absorbance at 492 nm was measured by a microplate reader.
The cytotoxicity of compounds on BV2 cells were evaluated by MTT assay and similar to those described in Section 2.5. The NO concentrations in medium were determined using Griess Reagent assay (Beyotime) in accordance with a previously reported method. Nitrite is reduced to nitrogen oxide using Griess Reagent I. Nitrogen oxide then reacts with Griess Reagent II forming a stable product that can be detected by its absorbance at […]. The two-step assay is simple, fast, and can detect nitrite levels as low as 1 nmol/well. BV2 cells were seeded into a 48-well plate at a density of 6.0 × 10^4 cells per well. […]

As usually defined, the inhibition is the percentage by which the read-out fell short of the control.

Structures are written as SMILES.

Aβ1-42, sequence (P05067 672-713 limits assumed): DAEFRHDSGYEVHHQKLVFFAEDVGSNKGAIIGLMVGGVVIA

For the compound `O=C1c2cc(NS(=O)(=O)c3ccccc3F)ccc2-n2c1nc1ccccc1c2=O` [4h], the “H2O2-Induced PC12 Cell Viability (% of Control)” value in the series on H2O2-induced PC12 cells (compound 10 μM) was 61.66 ± 1.3 % of Control; with H2O2-induced PC12 cells (compound 30 μM), 71.31 ± 1.9 % of Control. The inhibition at 100 µM on Aβ1-42 was determined as 63.2 ± 2.33%. Also, the “Reversibility of BuChE inhibition” value on BuChE (dilution method) is “reversible inhibitor”. For the same compound, the “BuChE activity after dilution (reversibility)” value on BuChE (final inhibitor 0.1 × IC50 after 100-fold dilution) was 92.2 ± 0.52; at BuChE (final inhibitor 1 × IC50 after 100-fold dilution), 84.9 ± 1.2. The “Cell Viability (% of Control)” value in the series on BV2 cells (30 μM) is reported as 101.23 ± 1.82 % of control; in the series with BV2 cells (50 μM), 97.44 ± 1.36 % of control.
